The values that follow are results of earlier work, collected in patent US20250257300A1, “MICROTITER-PLATE-BASED HIGH THROUGHPUT PERFUSION BIOREACTOR” (THE GEORGE WASHINGTON UNIVERSITY, priority 2022, published 2025).

The data set concerns Pseudomonas aeruginosa biofilms. To be noted: Pseudomonas aeruginosa biofilms growing on urinary catheters vs planktonic cells.

As for `NC[C@H]1O[C@H](O[C@H]2[C@H](O)[C@@H](O[C@H]3O[C@H](CO)[C@@H](O)[C@H](N)[C@H]3O)[C@H](N)C[C@@H]2N)[C@H](N)C[C@@H]1O` [tobramycin], the “resistance of biofilms to tobramycin relative to planktonic cells” value is 1000 times.
